Laboratory results reported in ChEMBL document CHEMBL1759965, “Synthesis and pharmacological evaluation of bivalent antagonists of the nociceptin opioid receptor” (Eur J Med Chem, 2011).
pIC50: −log10 of the molar value. Active and inactive are the calls of the source. The rule behind the calls is not given here.

Assays:
[1] = biological target: Delta-type opioid receptor (Homo sapiens) (UniProt P41143); test: Displacement of [3H]-naltrindole from human delta opioid receptor expressed in human HEK293 cells after 2 hrs by scintillation counting; format: cell-based
[2] = biological target: Mu-type opioid receptor (Homo sapiens, UniProt P35372); test: Displacement of [3H]-naltrindole from human mu opioid receptor expressed in CHO cells after 2 hrs by scintillation counting; format: cell-based
[3] = organism: Homo sapiens; test: Selectivity ratio of IC50 for human kappa opioid receptor to IC50 for human NOP receptor
[4] = organism: Homo sapiens; test: Selectivity ratio of IC50 for human mu opioid receptor to IC50 for human NOP receptor
[5] = biological target: T1, Nociceptin receptor (Homo sapiens, UniProt P41146); test: Antagonist activity at human NOP receptor expressed in human HEK293 cells assessed as inhibition of GTPgammaS binding in presence of 300 nM GDP relative to control; format: functional, cell-based
[6] = biological target: T1, Nociceptin receptor; test: Displacement of [125I]Tyr14-nociceptin from human NOP receptor expressed in human HEK293 cells after 90 mins by scintillation counting
[7] = biological target: Kappa-type opioid receptor (Homo sapiens, UniProt P41145); test: Displacement of [3H]-diprenorphine from human kappa opioid receptor expressed in human HEK293 cells after 2 hrs by scintillation counting
Sequence of Kappa-type opioid receptor (P41145 whole entry): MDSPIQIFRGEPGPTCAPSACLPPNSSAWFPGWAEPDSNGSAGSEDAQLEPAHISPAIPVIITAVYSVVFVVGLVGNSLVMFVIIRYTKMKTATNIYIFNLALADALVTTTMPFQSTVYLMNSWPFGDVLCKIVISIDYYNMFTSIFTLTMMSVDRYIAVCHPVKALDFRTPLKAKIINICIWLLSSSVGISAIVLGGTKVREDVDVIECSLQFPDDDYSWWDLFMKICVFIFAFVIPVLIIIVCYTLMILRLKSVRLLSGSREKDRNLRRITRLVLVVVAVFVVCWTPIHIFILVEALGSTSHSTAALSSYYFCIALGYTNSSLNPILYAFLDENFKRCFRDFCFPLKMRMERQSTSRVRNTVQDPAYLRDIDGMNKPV

T1 sequence (P41146 whole entry): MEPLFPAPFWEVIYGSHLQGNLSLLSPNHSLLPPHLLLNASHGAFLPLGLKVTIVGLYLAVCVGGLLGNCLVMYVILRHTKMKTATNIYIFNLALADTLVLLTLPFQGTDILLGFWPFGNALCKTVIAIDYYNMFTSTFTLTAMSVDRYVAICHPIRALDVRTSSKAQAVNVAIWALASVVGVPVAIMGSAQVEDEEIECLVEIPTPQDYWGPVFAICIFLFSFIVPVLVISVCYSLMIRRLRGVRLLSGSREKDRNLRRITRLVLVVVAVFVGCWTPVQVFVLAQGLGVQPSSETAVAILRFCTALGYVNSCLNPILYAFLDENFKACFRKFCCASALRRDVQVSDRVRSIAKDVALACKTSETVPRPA
Sequence of Delta-type opioid receptor (Homo sapiens) (P41143 whole entry): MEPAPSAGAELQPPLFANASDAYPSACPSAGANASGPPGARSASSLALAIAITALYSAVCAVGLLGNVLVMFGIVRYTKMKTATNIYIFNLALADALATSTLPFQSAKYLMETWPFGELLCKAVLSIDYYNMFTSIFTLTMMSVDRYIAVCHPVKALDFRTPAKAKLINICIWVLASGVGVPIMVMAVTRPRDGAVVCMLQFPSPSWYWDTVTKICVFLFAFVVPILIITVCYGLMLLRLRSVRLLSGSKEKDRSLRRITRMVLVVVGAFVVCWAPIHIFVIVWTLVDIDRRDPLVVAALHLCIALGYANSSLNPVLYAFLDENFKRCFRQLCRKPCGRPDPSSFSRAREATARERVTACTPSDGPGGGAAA
Sequence of Mu-type opioid receptor (P35372 whole entry): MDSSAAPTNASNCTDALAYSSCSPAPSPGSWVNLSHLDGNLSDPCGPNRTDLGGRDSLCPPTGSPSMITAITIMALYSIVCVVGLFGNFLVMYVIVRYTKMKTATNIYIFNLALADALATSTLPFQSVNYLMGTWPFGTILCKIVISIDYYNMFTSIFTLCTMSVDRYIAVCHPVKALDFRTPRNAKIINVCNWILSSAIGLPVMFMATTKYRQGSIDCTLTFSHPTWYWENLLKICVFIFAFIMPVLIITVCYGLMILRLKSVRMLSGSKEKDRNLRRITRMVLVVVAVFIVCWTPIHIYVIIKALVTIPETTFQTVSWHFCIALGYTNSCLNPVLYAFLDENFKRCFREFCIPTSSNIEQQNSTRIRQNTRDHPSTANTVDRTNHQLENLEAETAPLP

| SMILES | Activity [1] | pIC50 [2] | Ratio IC50 [3] | Ratio IC50 [4] | Activity [5] | pIC50 [6] | pIC50 [7] |
| --- | --- | --- | --- | --- | --- | --- | --- |
| Cc1cc(N)c2cc(NC(=O)c3ccccc3COc3ccc(CNCCCCCCCCN)cc3)ccc2n1 | inactive | 6.49 | 8.6 | 3.2 | Active | 6.84 | 6.06 |
| Cc1cc(N)c2cc(NC(=O)c3ccccc3COc3ccc(CNCCCCCCCN)cc3)ccc2n1 | inactive | 5.00 | 5.7 | 57 | Active | 6.61 | 6.00 |
| Cc1cc(N)c2cc(NC(=O)c3ccccc3COc3ccc(CNCCCNCc4ccc(OCc5ccccc5C(=O)Nc5ccc6nc(C)cc(N)c6c5)cc4)cc3)ccc2n1 | inactive | 6.33 | 177 | 15 | Active | 7.12 | 5.26 |

Now from value to compound:

| Activity [1] | pIC50 [2] | Ratio IC50 [3] | Ratio IC50 [4] | Activity [5] | pIC50 [6] | pIC50 [7] | SMILES |
| --- | --- | --- | --- | --- | --- | --- | --- |
| inactive | 5.85 | 86 | 13 | Active | 6.82 | 5.04 | Cc1cc(N)c2cc(NC(=O)c3ccccc3COc3ccc(CNCCCCCCCCCCN)cc3)ccc2n1 |
| inactive | 5.15 | 40 | 46 | Active | 6.67 | 5.21 | Cc1cc(N)c2cc(NC(=O)c3ccccc3COc3ccc(CNCCCCCCCCCN)cc3)ccc2n1 |
| inactive | 5.56 | 15 | 9.6 | Active | 6.39 | 5.36 | CCCCCCCCCCNCc1ccc(OCc2ccccc2C(=O)Nc2ccc3nc(C)cc(N)c3c2)cc1 |
